Data taken from US20080109040A1, “METHOD OF TREATING ARRHYTHMIAS” (priority 2002, published 2008).
Entries after “also recorded” stand apart in the source; their conditions may differ. Like-named read-outs stand apart in the source and are kept apart here.

Columns and labels:
M cell preparations = test system: M cell preparations; set-up: species or system canine; settings: for Amplitude / Overshoot / RMP: BCL = 500 msec; for Reduction of Vmax: preparation type not stated
Protocol: (§1) The composition of the Tyrode's solution was (in mM): […] Action potential recordings: Transmembrane potentials were recorded using standard glass microelectrodes filled with 2.7 M KCl (10 to 20 MΩ DC resistance) connected to a high input-impedance amplification system (World Precision Instruments, Sarasota, Fla., USA). […] Data recorded at BCLs of 500 and 2000 msec are presented.

[1] = molecular target: T1, L-type calcium current (ICa) (Canis lupus familiaris, UniProt A0A8I3QY31); experiment: L-type calcium current voltage clamp in isolated canine left ventricular myocytes; format: cell-based; settings: read-out: Concentration at which ranolazine blocks the calcium channel
T1 construct: Single myocytes were obtained by enzymatic dissociation from a wedge-shaped section of the ventricular free wall; endogenous in cells; host or cells: isolated canine left ventricular myocytes

[2] = molecular target: T2, slowly activating component of the delayed rectifier current (IKs) (Canis lupus familiaris, UniProt A0A8I3N8W8); experiment: Whole cell voltage clamp of IKs tail current in isolated canine left ventricular myocytes; format: cell-based
T2 construct: Myocytes were isolated by enzymatic dissociation from a wedge-shaped section of the left ventricular free wall; endogenous in cells; host or cells: isolated canine left ventricular myocytes
T2 sequence (A0A8I3N8W8 1-676): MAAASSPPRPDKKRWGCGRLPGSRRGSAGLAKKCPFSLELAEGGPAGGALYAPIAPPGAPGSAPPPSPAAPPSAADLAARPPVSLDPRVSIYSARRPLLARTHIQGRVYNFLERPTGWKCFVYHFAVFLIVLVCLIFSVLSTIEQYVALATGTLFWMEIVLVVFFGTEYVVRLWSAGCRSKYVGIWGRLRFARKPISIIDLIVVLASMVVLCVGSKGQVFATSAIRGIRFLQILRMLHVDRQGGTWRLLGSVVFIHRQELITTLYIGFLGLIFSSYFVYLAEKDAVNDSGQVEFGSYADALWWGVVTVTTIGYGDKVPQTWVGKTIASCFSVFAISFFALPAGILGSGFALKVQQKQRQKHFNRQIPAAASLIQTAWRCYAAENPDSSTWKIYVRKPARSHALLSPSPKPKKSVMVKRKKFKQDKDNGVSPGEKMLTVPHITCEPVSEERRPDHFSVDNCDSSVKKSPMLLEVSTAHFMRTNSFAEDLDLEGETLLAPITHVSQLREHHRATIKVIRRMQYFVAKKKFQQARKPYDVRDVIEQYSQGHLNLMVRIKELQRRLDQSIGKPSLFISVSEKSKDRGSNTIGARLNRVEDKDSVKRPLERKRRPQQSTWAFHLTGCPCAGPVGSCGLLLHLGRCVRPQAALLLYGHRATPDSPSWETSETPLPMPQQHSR
Protocol: Myocytes were isolated by enzymatic dissociation from a wedge-shaped section of the left ventricular free wall supplied by the left circumflex coronary artery. Cells from the epicardial and midmyocardial regions of the left ventricle were used in this study.
Inward rectifier potassium current (IK), slow delayed rectifier potassium current (IKs), and rapid delayed rectifier potassium current (IKr) were recorded at 37° C. using conventional whole cell voltage clamp configuration.
IK1 was measured using an external solution containing 3 μM ouabain and 5 μM nifedipine to block the sodium-potassium pump and L-type calcium current (ICa,L), respectively. […] 5 μM nifedipine was present in the external solution when IKr was being recorded.
Isolated myocytes were placed in a temperature controlled 0.5 ml chamber (Medical Systems, Greenvale, N.Y.) on the stage of an inverted microscope and superfused at a rate of 2 ml/min. An eight-barrel quartz micromanifold (ALA Scientific Instruments Inc., Westbury, N.Y.) placed 100 μm from the cell was used to apply ranolazine at concentrations of (in μM): 0.1, 0.5, 1.0, 5.0, 10 and 100.0. An Axopatch 1D amplifier (Axon Instruments, Foster City, Calif.) was operated in voltage clamp mode to record currents. […]

epicardial preparations = experiment: Action potential studies in isolated canine ventricular epicardial tissues; set-up: Amplitude / Overshoot: unit not given beside the values; settings: for Amplitude / Overshoot / RMP: epicardial, BCL = 500 msec
Protocol: as §1

late INa = late INa (Canis lupus familiaris, UniProt Q865W3); experiment: Late INa during action potential voltage clamp in canine midmyocardial myocytes; format: cell-based
[3] = M cell, low [K+]o, BCL = 2000 msec
[4] = epicardium, low [K+]o, BCL = 2000 msec

late INa, sequence (Q865W3 1-2013): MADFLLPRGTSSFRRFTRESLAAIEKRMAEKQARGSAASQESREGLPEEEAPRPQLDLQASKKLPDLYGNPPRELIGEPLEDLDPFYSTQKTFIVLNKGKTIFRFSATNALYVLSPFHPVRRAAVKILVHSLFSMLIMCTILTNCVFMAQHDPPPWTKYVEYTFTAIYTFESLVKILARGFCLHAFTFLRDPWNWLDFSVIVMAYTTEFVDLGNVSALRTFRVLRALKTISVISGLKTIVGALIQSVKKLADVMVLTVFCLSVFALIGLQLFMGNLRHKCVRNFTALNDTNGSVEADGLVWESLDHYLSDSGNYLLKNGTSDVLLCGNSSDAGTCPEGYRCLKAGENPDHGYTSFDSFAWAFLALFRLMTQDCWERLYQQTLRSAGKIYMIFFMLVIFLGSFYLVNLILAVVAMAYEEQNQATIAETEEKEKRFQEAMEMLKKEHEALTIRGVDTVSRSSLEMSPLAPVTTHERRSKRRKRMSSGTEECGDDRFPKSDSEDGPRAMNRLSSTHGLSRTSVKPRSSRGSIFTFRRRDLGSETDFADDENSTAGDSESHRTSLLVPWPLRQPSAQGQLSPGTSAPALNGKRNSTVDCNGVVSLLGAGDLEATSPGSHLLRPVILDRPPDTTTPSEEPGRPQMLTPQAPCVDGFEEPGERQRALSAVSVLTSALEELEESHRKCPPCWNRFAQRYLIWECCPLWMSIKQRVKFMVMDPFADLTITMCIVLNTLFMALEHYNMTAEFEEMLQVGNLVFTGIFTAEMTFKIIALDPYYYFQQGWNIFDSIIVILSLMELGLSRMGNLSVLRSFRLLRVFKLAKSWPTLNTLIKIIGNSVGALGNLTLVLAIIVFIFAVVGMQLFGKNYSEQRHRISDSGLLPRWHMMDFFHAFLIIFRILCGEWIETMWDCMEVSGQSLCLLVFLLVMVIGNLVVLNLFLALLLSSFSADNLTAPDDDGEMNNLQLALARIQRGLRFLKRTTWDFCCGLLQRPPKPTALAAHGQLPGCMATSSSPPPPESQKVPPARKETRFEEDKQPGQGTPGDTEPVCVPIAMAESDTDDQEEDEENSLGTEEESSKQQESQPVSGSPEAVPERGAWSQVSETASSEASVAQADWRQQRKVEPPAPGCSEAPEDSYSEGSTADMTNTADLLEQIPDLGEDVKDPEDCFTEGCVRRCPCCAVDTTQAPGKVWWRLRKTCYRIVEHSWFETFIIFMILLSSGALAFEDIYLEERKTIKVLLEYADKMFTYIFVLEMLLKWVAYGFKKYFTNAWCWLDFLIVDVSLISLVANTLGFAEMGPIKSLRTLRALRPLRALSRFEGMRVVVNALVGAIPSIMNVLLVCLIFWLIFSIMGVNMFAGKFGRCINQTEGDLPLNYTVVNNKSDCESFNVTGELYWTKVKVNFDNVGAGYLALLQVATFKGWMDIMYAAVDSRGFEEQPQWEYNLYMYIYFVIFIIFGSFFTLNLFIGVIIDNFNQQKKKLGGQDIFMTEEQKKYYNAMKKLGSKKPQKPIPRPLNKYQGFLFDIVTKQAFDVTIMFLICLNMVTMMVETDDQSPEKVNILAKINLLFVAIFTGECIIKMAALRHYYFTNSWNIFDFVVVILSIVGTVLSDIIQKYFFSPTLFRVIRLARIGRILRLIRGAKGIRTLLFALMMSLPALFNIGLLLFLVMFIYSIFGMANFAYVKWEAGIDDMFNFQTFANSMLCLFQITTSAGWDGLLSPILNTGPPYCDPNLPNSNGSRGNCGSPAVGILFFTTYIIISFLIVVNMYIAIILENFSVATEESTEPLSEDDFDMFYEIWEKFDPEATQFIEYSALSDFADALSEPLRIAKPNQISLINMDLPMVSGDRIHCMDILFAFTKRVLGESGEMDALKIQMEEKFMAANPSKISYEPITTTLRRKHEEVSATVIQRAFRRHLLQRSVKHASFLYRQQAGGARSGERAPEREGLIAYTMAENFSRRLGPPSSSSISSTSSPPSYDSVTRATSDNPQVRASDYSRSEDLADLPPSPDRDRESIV
T1 sequence (A0A8I3QY31 1-2188): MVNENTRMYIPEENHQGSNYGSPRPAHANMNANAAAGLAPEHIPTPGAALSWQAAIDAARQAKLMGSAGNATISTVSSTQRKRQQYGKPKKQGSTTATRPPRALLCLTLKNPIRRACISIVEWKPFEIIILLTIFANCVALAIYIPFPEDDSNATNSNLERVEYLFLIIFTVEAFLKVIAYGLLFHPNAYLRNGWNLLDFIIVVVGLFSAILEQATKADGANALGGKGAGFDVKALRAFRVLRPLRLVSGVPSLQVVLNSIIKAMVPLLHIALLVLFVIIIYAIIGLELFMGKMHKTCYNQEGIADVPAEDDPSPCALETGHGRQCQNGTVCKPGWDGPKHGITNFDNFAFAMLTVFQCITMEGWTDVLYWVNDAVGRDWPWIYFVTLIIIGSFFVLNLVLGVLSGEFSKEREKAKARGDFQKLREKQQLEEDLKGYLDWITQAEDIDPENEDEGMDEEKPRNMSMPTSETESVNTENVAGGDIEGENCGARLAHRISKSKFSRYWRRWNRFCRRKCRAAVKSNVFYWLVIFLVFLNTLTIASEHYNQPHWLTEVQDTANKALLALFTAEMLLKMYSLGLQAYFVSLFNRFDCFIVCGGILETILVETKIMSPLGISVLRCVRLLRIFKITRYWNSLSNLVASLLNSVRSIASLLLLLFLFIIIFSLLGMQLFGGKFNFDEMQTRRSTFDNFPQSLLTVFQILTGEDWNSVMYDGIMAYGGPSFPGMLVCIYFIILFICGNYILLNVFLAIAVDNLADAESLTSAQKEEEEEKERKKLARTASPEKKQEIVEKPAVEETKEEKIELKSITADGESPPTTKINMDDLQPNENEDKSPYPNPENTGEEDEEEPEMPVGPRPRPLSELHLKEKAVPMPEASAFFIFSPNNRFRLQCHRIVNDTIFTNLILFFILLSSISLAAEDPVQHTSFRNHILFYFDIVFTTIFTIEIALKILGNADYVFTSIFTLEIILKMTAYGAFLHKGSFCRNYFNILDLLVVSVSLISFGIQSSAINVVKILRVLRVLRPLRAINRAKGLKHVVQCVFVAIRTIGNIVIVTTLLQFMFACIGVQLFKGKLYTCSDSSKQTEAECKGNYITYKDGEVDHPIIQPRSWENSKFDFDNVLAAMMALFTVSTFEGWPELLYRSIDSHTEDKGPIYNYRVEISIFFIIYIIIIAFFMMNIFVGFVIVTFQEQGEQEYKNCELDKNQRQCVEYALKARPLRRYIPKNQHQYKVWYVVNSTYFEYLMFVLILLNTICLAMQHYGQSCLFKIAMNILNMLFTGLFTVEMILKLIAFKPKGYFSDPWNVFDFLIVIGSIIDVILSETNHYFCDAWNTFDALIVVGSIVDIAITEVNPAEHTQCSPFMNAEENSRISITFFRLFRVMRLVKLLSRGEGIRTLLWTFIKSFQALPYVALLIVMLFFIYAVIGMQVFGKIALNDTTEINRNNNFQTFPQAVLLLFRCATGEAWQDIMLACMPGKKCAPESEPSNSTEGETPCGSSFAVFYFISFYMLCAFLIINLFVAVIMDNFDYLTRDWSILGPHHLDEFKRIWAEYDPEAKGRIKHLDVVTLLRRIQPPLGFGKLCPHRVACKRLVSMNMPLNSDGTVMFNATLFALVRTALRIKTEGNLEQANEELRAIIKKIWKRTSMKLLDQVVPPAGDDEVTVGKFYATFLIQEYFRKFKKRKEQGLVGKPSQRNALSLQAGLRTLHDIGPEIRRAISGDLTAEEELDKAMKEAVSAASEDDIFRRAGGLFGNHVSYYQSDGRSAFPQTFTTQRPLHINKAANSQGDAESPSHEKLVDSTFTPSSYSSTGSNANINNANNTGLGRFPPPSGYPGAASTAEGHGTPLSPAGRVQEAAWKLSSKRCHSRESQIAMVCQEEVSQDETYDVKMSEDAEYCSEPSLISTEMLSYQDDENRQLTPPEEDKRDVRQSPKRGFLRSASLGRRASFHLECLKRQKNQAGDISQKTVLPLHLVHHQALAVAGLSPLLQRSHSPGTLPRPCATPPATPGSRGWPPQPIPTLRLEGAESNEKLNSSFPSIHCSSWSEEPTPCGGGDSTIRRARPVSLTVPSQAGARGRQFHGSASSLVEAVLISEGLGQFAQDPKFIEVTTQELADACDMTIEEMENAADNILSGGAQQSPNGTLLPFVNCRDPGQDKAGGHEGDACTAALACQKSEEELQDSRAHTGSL

COc1ccccc1OCC(O)CN1CCN(CC(=O)Nc2c(C)cccc2C)CC1 (racemic) [ranolazine, N-(2,6-dimethylphenyl)-4-[2-hydroxy-3-(2-methoxyphenoxy)propyl]-1-piperazineacetamide]
Effect on APD (M cell preparations; M cell preparations, BCL 500 msec): abbreviation | Effect on APD50 and APD90 (M cell preparations; M cell, [K+]o = 4 mM, BCL = 2000 msec): concentration-dependent abbreviation | Effect on repolarization (M cell preparations; M cell, low [K+]o, BCL 500 msec): little change | Effect on APD50 (M cell preparations; [3]): concentration-dependent abbreviation | Effect on APD90 (M cell preparations; [3]): no significant change | Amplitude (M cell preparations; M cell, ranolazine 1.0 μM): 109 ± 9 | Overshoot (M cell preparations; M cell, ranolazine 1.0 μM): 23 ± 10 | RMP (M cell preparations; M cell, ranolazine 1.0 μM): −86 ± 3 | Amplitude (M cell preparations; M cell, ranolazine 5.0 μM): 114 ± 8 | Overshoot (M cell preparations; M cell, ranolazine 5.0 μM): 27 ± 7 | RMP (M cell preparations; M cell, ranolazine 5.0 μM): −86 ± 3 | Amplitude (M cell preparations; M cell, ranolazine 10.0 μM): 113 ± 9 | Overshoot (M cell preparations; M cell, ranolazine 10.0 μM): 25 ± 8 | RMP (M cell preparations; M cell, ranolazine 10.0 μM): −86 ± 2 | Amplitude (M cell preparations; M cell, ranolazine 50.0 μM): 104 ± 7 | Overshoot (M cell preparations; M cell, ranolazine 50.0 μM): 19 ± 3 | RMP (M cell preparations; M cell, ranolazine 50.0 μM): −86 ± 5 | Amplitude (M cell preparations; M cell, ranolazine 100.0 μM): 91 ± 19 | Overshoot (M cell preparations; M cell, ranolazine 100.0 μM): 9 ± 13 | RMP (M cell preparations; M cell, ranolazine 100.0 μM): −86 ± 7 | Reduction of Vmax (M cell preparations; ranolazine 10 μM, BCL 500 msec): modest (n.s.) | Reduction of Vmax (M cell preparations; ranolazine 100 μM, BCL 500 msec): more substantial | Preparations in which d-sotalol-induced EAD activity was suppressed and APD abbreviated (M cell preparations; ranolazine 5-20 μM, 100 μM d-sotalol, M cell preparations): 4/4 | IC50 [1]: 296 µM | Block of IKs tail current ([2]; ranolazine 100 μM, reversed on washout): largely eliminated the tail current; also recorded: almost completely blocked | IC50 ([2]; read-out: IC50 for inhibition of IKs tail current): 13.4 µM | Effect on APD (epicardial preparations; epicardial tissues, BCL 500 msec): concentration-dependent prolongation | Amplitude (epicardial preparations; ranolazine 1.0 μM): 93 ± 5 | Overshoot (epicardial preparations; ranolazine 1.0 μM): 10 ± 4 | RMP (epicardial preparations; ranolazine 1.0 μM): −84 ± 4 | Amplitude (epicardial preparations; ranolazine 5.0 μM): 101 ± 2 | Overshoot (epicardial preparations; ranolazine 5.0 μM): 12 ± 3 | RMP (epicardial preparations; ranolazine 5.0 μM): −89 ± 1 | Amplitude (epicardial preparations; ranolazine 10.0 μM): 94 ± 5 | Overshoot (epicardial preparations; ranolazine 10.0 μM): 8 ± 4 | RMP (epicardial preparations; ranolazine 10.0 μM): −88 ± 2 | Amplitude (epicardial preparations; ranolazine 50.0 μM): 86 ± 12 | Overshoot (epicardial preparations; ranolazine 50.0 μM): 0 ± 11 | RMP (epicardial preparations; ranolazine 50.0 μM): −86 ± 1 | Amplitude (epicardial preparations; ranolazine 100.0 μM (n=2)): 93 ± 3 | Overshoot (epicardial preparations; ranolazine 100.0 μM (n=2)): 8 ± 4 | RMP (epicardial preparations; ranolazine 100.0 μM (n=2)): −85 ± 3 | Effect on APD90 (epicardial preparations; epicardium, low [K+]o, BCL 500 msec): prominent concentration-dependent prolongation | Effect on APD50 (epicardial preparations; [4]): little change | Effect on APD90 (epicardial preparations; [4]): concentration-dependent prolongation | Effect on APD in two of four epicardial preparations (epicardial preparations; ranolazine 100.00 μM, BCL 500 msec): excessive APD prolongation | IC50 (late INa; BCL 2000 ms, first value (plateau, 20 mV), read-out: Half-inhibition of late INa): 5.9 µM | IC50 (late INa; BCL 2000 ms, second value (−28 mV), read-out: Half-inhibition of late INa): 20.8 µM | IC50 (late INa; basic cycle length 300 ms, read-out: Half-inhibition of INa,late): 11.5 µM | IC50 (late INa; basic cycle length 2000 ms, read-out: Half-inhibition of INa,late): 20.8 µM
